Measurements: ChEMBL document CHEMBL1201862, “PubChem BioAssay data set” (2004)
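Grown in 96-well plates, cells were treated for 48 hours with each compound at five concentrations. Insufficient inhibition: endpoint recorded as highest concentration tested. Abbreviation: GI50, concentration required for 50% inhibition of growth.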 The source made the active and inactive calls. No stated cut-off is given here; in the data, active = GI50 up to about 1.1 µM and inactive = higher.

How the values were obtained:
Assay in all cases: NCI anticancer screen, dose series, 48 h
A549 = tested on: A549
ACHN = tested on: ACHN
CAKI-1 = tested on: CAKI-1
CCRF-CEM = tested on: CCRF-CEM
EKVX = tested on: EKVX
HCT-116 = tested on: HCT-116
IGROV-1 = tested on: IGROV-1
NCI-H226 = tested on: NCI-H226
NCI-H23 = tested on: NCI-H23
OVCAR-5 = tested on: OVCAR-5
OVCAR-8 = tested on: OVCAR-8
SF-295 = tested on: SF-295
SF-539 = tested on: SF-539
SK-MEL-2 = tested on: SK-MEL-2
SNB-19 = tested on: SNB-19
TK-10 = tested on: TK-10
LOX IMVI = tested on: LOX IMVI
OVCAR-4 = tested on: OVCAR-4
U-251 = tested on: U-251
HOP-92 = tested on: HOP-92

Measured: GI50

CCOC(=O)c1c(N=C(S)Nc2ccccc2)sc2c1CCN(C)C2
inactive: A549 > 100 µM | ACHN > 100 µM | CAKI-1 > 100 µM | CCRF-CEM > 100 µM | EKVX > 100 µM | HCT-116 > 100 µM | IGROV-1 > 100 µM | NCI-H226 > 100 µM | NCI-H23 > 100 µM | OVCAR-5 > 100 µM | OVCAR-8 > 100 µM | SF-295 > 100 µM | SF-539 > 100 µM | SK-MEL-2 > 100 µM | SNB-19 > 100 µM | TK-10 > 100 µM

COC(=O)C(=O)Cc1nc2ccccc2o1
inactive: ACHN > 100 µM | CCRF-CEM > 100 µM | EKVX > 100 µM | HCT-116 > 100 µM | LOX IMVI > 100 µM | NCI-H23 > 100 µM | OVCAR-4 > 100 µM | OVCAR-5 > 100 µM | SF-539 > 100 µM | SK-MEL-2 > 100 µM | SNB-19 > 100 µM | TK-10 > 100 µM | U-251 > 100 µM

CN(C)CCC(O)(c1ccccc1)C(O)(CCN(C)C)c1ccccc1 (centres undefined)
inactive: A549 > 100 µM | ACHN > 100 µM | CAKI-1 > 100 µM | CCRF-CEM > 100 µM | EKVX > 100 µM | IGROV-1 > 100 µM | NCI-H23 > 100 µM | OVCAR-4 > 100 µM | OVCAR-5 > 100 µM | OVCAR-8 > 100 µM | SF-295 53.7 µM | SK-MEL-2 > 100 µM | SNB-19 > 100 µM | TK-10 > 100 µM | U-251 > 100 µM

CCOC(=O)c1c(N)sc2c1C(C(=O)OCC)CCC2 (centres undefined)
inactive: A549 > 100 µM | ACHN > 100 µM | CCRF-CEM > 100 µM | EKVX 55.8 µM | HCT-116 79.8 µM | HOP-92 > 100 µM | IGROV-1 > 100 µM | NCI-H226 > 100 µM | NCI-H23 > 100 µM | OVCAR-5 > 100 µM | OVCAR-8 > 100 µM | SK-MEL-2 > 100 µM | SNB-19 > 100 µM | TK-10 > 100 µM | U-251 > 100 µM

OCCCC(O)(c1ccccc1)c1ccccc1
inactive: A549 > 100 µM | ACHN > 100 µM | CCRF-CEM > 100 µM | EKVX > 100 µM | IGROV-1 > 100 µM | LOX IMVI > 100 µM | NCI-H226 > 100 µM | NCI-H23 > 100 µM | OVCAR-4 > 100 µM | OVCAR-5 > 100 µM | OVCAR-8 > 100 µM | SF-295 > 100 µM | SF-539 > 100 µM | SK-MEL-2 > 100 µM | SNB-19 > 100 µM | TK-10 > 100 µM | U-251 > 100 µM

COc1ccc(-c2c3c(nc4nc(SCCc5ccccc5)nc(N)c24)CCCC3)cc1OC
inactive: A549 > 100 µM | ACHN > 100 µM | CAKI-1 > 100 µM | CCRF-CEM > 100 µM | EKVX > 100 µM | HCT-116 > 100 µM | IGROV-1 > 100 µM | LOX IMVI > 100 µM | NCI-H23 > 100 µM | OVCAR-4 75.7 µM | OVCAR-5 > 100 µM | OVCAR-8 > 100 µM | SF-295 22.7 µM | SF-539 85.7 µM | SNB-19 > 100 µM | TK-10 > 100 µM | U-251 > 100 µM

CCCCCCCSc1nc2c(C(=O)OCC)ncn2c2ccccc12
inactive: ACHN > 100 µM | CCRF-CEM > 100 µM | EKVX > 100 µM | HCT-116 > 100 µM | HOP-92 25.1 µM | IGROV-1 > 100 µM | LOX IMVI > 100 µM | NCI-H226 > 100 µM | NCI-H23 > 100 µM | OVCAR-5 > 100 µM | OVCAR-8 > 100 µM | SF-295 91.8 µM | SK-MEL-2 > 100 µM | TK-10 > 100 µM | U-251 > 100 µM

CC[C@]12C=CCN3CC[C@@]4(c5cc(Br)c(OC)c([N+](=O)[O-])c5N(C)[C@H]4[C@@](O)(C(=O)OC)[C@@H]1OC(C)=O)[C@@H]32
inactive: A549 39.8 µM | ACHN 62.4 µM | CAKI-1 40.3 µM | CCRF-CEM 24.7 µM | EKVX 29.6 µM | HCT-116 45.8 µM | IGROV-1 24.1 µM | LOX IMVI 34.6 µM | NCI-H226 21.8 µM | NCI-H23 56.9 µM | OVCAR-4 52.8 µM | OVCAR-5 > 100 µM | OVCAR-8 30.5 µM | SF-295 37 µM | SF-539 > 100 µM | SK-MEL-2 74.1 µM | SNB-19 71.9 µM | TK-10 > 100 µM | U-251 43.4 µM

C=CC(C)C1(CCCOCc2ccccc2)C(=S)N2CCC3(CC24CCCC14)OCCO3 (centres undefined)
inactive: A549 16 µM | ACHN 9.84 µM | CAKI-1 > 100 µM | CCRF-CEM 6.41 µM | EKVX > 100 µM | IGROV-1 > 100 µM | LOX IMVI 54.3 µM | NCI-H226 36.6 µM | NCI-H23 6.1 µM | OVCAR-4 9.46 µM | OVCAR-5 > 100 µM | OVCAR-8 23.3 µM | SF-295 53.2 µM | SK-MEL-2 12.2 µM | SNB-19 24.5 µM | TK-10 97.3 µM | U-251 34.1 µM

c1ccc2c(c1)CCCC/C2=N/OCC1CO1 (centres undefined)
inactive: A549 56.4 µM | ACHN 99.1 µM | CCRF-CEM 46.5 µM | EKVX 56.9 µM | HCT-116 45 µM | HOP-92 22.3 µM | IGROV-1 50.8 µM | LOX IMVI 32.9 µM | NCI-H226 35.3 µM | NCI-H23 41.8 µM | OVCAR-8 45.7 µM | SF-295 58.7 µM | SF-539 > 100 µM | SK-MEL-2 > 100 µM | TK-10 > 100 µM | U-251 72.3 µM

C=C1[C@@H]2CCC(C)(C)[C@H]1CCC(=O)[C@@H]2C(=O)OC
inactive: A549 > 100 µM | ACHN > 100 µM | CCRF-CEM > 100 µM | EKVX > 100 µM | HCT-116 > 100 µM | IGROV-1 > 100 µM | LOX IMVI > 100 µM | NCI-H226 > 100 µM | NCI-H23 > 100 µM | OVCAR-4 > 100 µM | OVCAR-8 > 100 µM | SF-295 > 100 µM | SF-539 > 100 µM | SK-MEL-2 > 100 µM | SNB-19 > 100 µM | TK-10 > 100 µM | U-251 > 100 µM

N#CCc1c(F)c(F)c(F)c(F)c1F
inactive: A549 > 100 µM | ACHN > 100 µM | CAKI-1 > 100 µM | CCRF-CEM > 100 µM | EKVX > 100 µM | HCT-116 > 100 µM | IGROV-1 > 100 µM | LOX IMVI > 100 µM | NCI-H226 > 100 µM | NCI-H23 > 100 µM | OVCAR-5 > 100 µM | OVCAR-8 > 100 µM | SF-295 > 100 µM | SF-539 > 100 µM | SNB-19 > 100 µM | TK-10 > 100 µM | U-251 > 100 µM
